Test results reported in patent US7893083B2, “Method of treating genital herpes” (priority 2003, dated 2011).

Experiments:
HSV-2 [1] = experiment: Remission interval between genital herpes outbreaks after intranasal Aldara regimens (Example 3); type: in vivo, human; details: after 2 to 4 regimens
Protocol: The patients were diagnosed with HSV-2 due to typical outbreak symptoms such as lesions. […] Thus, the contents were applied thoroughly along the inside surface of both nares. Initial application of Aldara™ to all the four patients occurred within 12 hours after the appearance of first symptoms resembling an outbreak of genital herpes. The application procedure was repeated every 12 hours up to 48 hours so that a total of four applications was administered to each patient.
Prior to treatment with Aldara™, the four patients were having herpes outbreaks at fairly regular intervals. Patients 1, 2 and 3 were experiencing outbreaks every 2 to 3 months and Patient 4 was having outbreaks once a month. Each of the four patients then began treatment by undergoing the 48 hour Aldara™ regimen detailed above each time he or she experienced an outbreak. After undergoing 2 to 4 regimens, each patient experienced a prolonged period of remission before the next outbreak.

IFN-a mRNA = IFN-a mRNA in postnasal swabs by quantitative competitive RT-PCR in macaques
TNF-a = TNF-a ELISA of nasal secretions after nasal application of imiquimod in macaques; type: in vivo, Macaca mulatta
Excerpt: (§1) The assay was limited to examining nasal secretions following nasal application (both nares) of imiquimod, because it is believed that this is the entry site where an immune response will be first observed. The assay evaluated the appearance of […] IFN-α and TNF-a in Macaca mulatta macaques and compared it with a control group treated with a base cream (without imiquimod) or simply anesthetized for the same time interval as the treated group.
(§2) The significance of the data is two-fold. First, intranasal administration of imiquimod cream (5%) produced enough IFN-a in a short period of time, so the cream can be applied daily in order to have 5-6 h of good efficacy. Thus, for example, one can begin applying the cream prior to encountering a known viral area such as an airplane. However, the cream has known cytotoxic effects (mediated through the cytokine production), especially if applied for weeks, so extended application would not be recommended. In the assay, TNF-a remained high for at least 6 h. In the treated group of macaques, the cream was washed away with warm water after the experiments. […] The cream needs to be applied to induce maximum concentration of IFN-a, but it may be removed when TNF-a continues to be elevated (after 6 h).
(§3) The control group (n=3) and the treated group (n=5) were sedated with glycopyrolate 0.01 mg/kg+acetaminophen 0.2 mg/kg and anesthetized with zolazepam (Telazol) 10 mg/kg intramuscular. […] Physical examination after each sample and at 6 h, 12 h, and 24 h post anesthesia consisted of examining each macaque for fever, erythema, erosion, flaking, and lacrimation.
(§4) IFN-a and TNF-a enzyme-linked immunoabsorbent assays (ELISA). Levels of IFN-a and TNF-a were measured using commercially available multispecies kit (PBL Biomedical Laboratories) (product #41105-1). The range of detection was 10-500 pg/ml (high sensitivity protocol).

viral rhinitis [2] = system: viral rhinitis
Excerpt: In each of the tests, an imiquimod salve was used. The formulation was that commonly used to treat warts and sold under the brand name Aldara™. The salve was applied to each naris of the test subject by use of a common cotton swab. Either a 4 mm^3 dab of salve or ½ pack of 5% Aldara™ was placed on the swab head. The swab head was inserted into a naris. The swab was moved around inside the naris to distribute the salve over the mucosal membrane of the naris. Immediately, after application of the Aldara™ to the subject's first naris, a swab was used to apply the Aldara™ to the subject's second naris. Immediately after application to each naris, the salve was massaged into the mucosal membrane of each naris.
A test sample of six patients was treated for viral rhinitis using imiquimod (5% topical cream Aldara™, manufactured by 3M Corporation, St. Paul, Minn.). The patients were diagnosed with viral rhinitis due to initial symptoms such as congested nasal passages (rhinitis), nasal drip or rhinorrhea, and sneezing. Contents from ½ packet of a standard imiquimod formulation such as, for example, Aldara™ were applied with a cotton swab into both nares by massaging gently but thoroughly. Approximately the contents from ½ packet of 5% Aldara™ was applied thoroughly along the inside surface of both nares. Initial application of Aldara™ to all the six patients occurred within 24 hours after the appearance of first symptoms resembling viral rhinitis, in order to maximize the efficiency of imiquimod in stimulating the immune system when the viral load is presumably smaller. The procedure was repeated every 12 hours for up to 48 hours. The imiquimod packets were refrigerated after opening, and the remaining contents were used for subsequent applications.
The patients were monitored for changes in the viral rhinitis symptoms.

IFN-a = IFN-a ELISA of nasal secretions after nasal application of imiquimod in macaques; type: in vivo, Macaca mulatta
Excerpt: as §1, §2, §3, §4

[3] = system: purified plasmacytoid dendritic cells; details: cited from earlier work
HSV-2 [4] = details: 235 human patients; topical application to herpes lesions; cited from earlier work
TLR7 = target: T1, TLR7 (Homo sapiens, UniProt Q9NYK1); details: cited from earlier work
T1 sequence (Q9NYK1 27-1049): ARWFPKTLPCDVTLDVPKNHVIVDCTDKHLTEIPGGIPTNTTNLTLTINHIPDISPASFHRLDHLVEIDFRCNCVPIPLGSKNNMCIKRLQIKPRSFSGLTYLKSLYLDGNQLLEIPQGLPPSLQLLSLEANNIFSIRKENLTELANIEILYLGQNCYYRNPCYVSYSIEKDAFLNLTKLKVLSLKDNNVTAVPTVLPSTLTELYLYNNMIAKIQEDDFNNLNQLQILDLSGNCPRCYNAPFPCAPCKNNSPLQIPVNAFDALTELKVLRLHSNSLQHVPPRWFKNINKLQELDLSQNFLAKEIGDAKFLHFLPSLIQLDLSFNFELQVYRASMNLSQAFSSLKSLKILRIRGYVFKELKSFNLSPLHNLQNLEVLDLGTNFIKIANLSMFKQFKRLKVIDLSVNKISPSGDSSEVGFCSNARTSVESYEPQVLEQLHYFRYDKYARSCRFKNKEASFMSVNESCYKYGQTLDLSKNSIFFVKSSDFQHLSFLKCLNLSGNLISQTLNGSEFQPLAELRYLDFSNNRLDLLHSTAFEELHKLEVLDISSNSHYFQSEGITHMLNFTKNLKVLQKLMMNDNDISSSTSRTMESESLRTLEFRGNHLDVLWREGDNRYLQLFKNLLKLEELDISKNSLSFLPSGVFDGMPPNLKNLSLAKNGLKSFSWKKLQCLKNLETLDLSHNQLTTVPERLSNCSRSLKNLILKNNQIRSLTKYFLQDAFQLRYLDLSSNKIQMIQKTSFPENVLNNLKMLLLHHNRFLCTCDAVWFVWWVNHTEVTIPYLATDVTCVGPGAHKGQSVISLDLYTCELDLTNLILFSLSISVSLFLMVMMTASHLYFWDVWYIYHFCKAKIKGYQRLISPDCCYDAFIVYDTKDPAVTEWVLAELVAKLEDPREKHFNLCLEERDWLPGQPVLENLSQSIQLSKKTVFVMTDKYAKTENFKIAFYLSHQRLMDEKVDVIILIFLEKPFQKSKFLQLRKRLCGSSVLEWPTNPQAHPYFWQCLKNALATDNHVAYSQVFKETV

viral rhinitis [5] = experiment: Viral rhinitis test subjects, delayed or once-daily Aldara in each nostril (Example 2); type: in vivo, human; details: applied more than 2 days after the onset of the cold symptoms
Protocol: The swab head was inserted into a naris.
Infected Test Subject #1 developed a sore throat with tingling in larynx, pharynx and uvula. 12 hours later, Subject 1 also developed congestion of the nose. One day later, the subject's initial symptoms intensified, and the subject further developed systemic symptoms such as malaise and headache. More than twenty four hours after the initial viral rhinitis symptoms appeared, Aldara™ was applied in each nostril with a Q-tip swab.
A 4 mm^3 dab of salve was placed on the swab head. The swab head was inserted into a naris. […] The subject was also treated with 2 teaspoons of standard cough suppressant guaifenesin/dextromethorphan (Wal-Tussin). The next day, malaise and headache were more pronounced and Aldara™ was reapplied with Q-tip to each nostril as described above. Also, 2 teaspoons of guaifenesin/dextromethorphan was administered.
Infected Test Subject #2 developed common cold with rhinorrhea and nose congestion. Aldara™ was applied once to each nostril every day for 3 days.

[6] = Physical examination of macaques for adverse or cytotoxic effects after nasal Aldara
[7] = nasal secretions, p<0.0001 versus control group

CC(C)Cn1cnc2c(N)nc3ccccc3c21 [imiquimod]
Post-Treatment Remission Interval (Approximate) (HSV-2 [1]; Patient 1, pre-treatment interval 2-3 months): ~3.5 years | Post-Treatment Remission Interval (Approximate) (HSV-2 [1]; Patient 2, pre-treatment interval 2-3 months): ~6 months | Post-Treatment Remission Interval (Approximate) (HSV-2 [1]; Patient 3, pre-treatment interval 2-3 months): ~10 months | Post-Treatment Remission Interval (Approximate) (HSV-2 [1]; Patient 4, pre-treatment interval 1 month): ~2 months | IFN-a level in treated animals, mean (IFN-a mRNA; samples taken 3-5 h after application, p=0.004 versus controls): 2.3 IFN-a/albumin mRNA×10^3 | IFN-a level in treated animals, range (IFN-a mRNA; samples taken 3-5 h after application, related to albumin mRNA): 0.84-5.20 mRNA×10^3 | Increase of IFN-a messenger RNA levels in nasal secretions compared with untreated macaques (IFN-a mRNA; single nasal application): 2-5 fold | TNF-a level relative to the controls (TNF-a; 6 h post nasal treatment): 3 times | TNF-a level (TNF-a; 6 h post treatment): remaining high | TNF-a increase over time (ELISA, FIG. 6B) (TNF-a; [7]): 540 ng/mg protein | Time of TNF-a peak (TNF-a; post treatment): 4 h | Effect of accidental inhalation of imiquimod (viral rhinitis [2]; one patient inhaled imiquimod): severe flu-like symptoms that spontaneously subsided within 24 hours | Aggravation of ulcerative colitis during treatment (viral rhinitis [2]; one patient with ulcerative colitis): did not suffer any further aggravation | Complete disappearance of symptoms (nasal congestion, sore throat, headache; malaise), time of treatment (viral rhinitis [2]; six patients, untreated viral rhinitis about a week or 10 days): ≤ 48 h | Side effects reported by patients (viral rhinitis [2]; throughout the course of treatment): No untoward side effects | IFN-a level relative to basal level (IFN-a; 3 h post treatment): 5 times basal level | IFN-a level (IFN-a; 4 h post treatment): near maximal level | IFN-a level (IFN-a; 6 h post treatment): near basal level | IFN-a increase over time (ELISA, FIG. 6A) (IFN-a; [7]): 630 ng/mg protein | Time of rapid induction of IFN-a post treatment (IFN-a; single nasal application): 1 to 5 h | IFN-a induction [3]: induce IFN-a | Outbreak recurrence times, imiquimod versus placebo (HSV-2 [4]): no statistically significant difference | Activity at TLR7 (TLR7): TLR7 agonists | Effectiveness of the treatment with late application (viral rhinitis [5]): decreased markedly | Adverse reactions to treatment in macaques ([6]; cream used during short period of time): No adverse reactions | Cytotoxic effects on examination ([6]; examined at 6 h, 12 h, or 24 h, cream washed away after the experiments): No animal had cytotoxic effects when examined at 6 h, 12 h, or 24 h, except one animal, which had an episode of lacrimation for 12 h post treatment
